Results: patent US20030124084A1, “Use of dehydroepiandrosterone and/or precursors or derivatives thereof to improve papery aspect of the skin” (priority 2000, published 2003)

Legend:
Format in all cases: in vivo, human
[1] = tested on: weathered appearance of the skin; test: Clinical score of the weathered appearance of the skin, back of the hand, treated hand vs control hand
Procedure: A gelled oil-in-water emulsion containing 1% by weight of DHEA as sole active agent was tested in comparison with a vehicle consisting of an identical emulsion but not containing DHEA.
The products were tested on a group of forty women aged from 55 to 70. Half of the individuals applied the vehicle and the other half applied the DHEA-based emulsion, the choice of the individuals being made according to a computer-generated randomization. The emulsion was applied in the morning and in the evening for four months to the back of only one hand, the other hand serving as a control. The amounts applied were controlled by weighing the tubes at the start and end of the test.
The weathered appearance is assessed clinically under blind conditions on the back of each hand, at the start of the test and after four months, by the same clinician. The weathered appearance is represented by a clinical score ranging from 0 (weathered appearance absent or relatively unpronounced) to 9 (very pronounced weathered appearance).
The statistical analysis is performed by Wilcoxon tests.

skin of the face [2] = test: Clinical scores of texture and flaccidness of the skin of the face
Procedure: (§1) This test was performed simultaneously with the one described in example 2, by applying the same products, onto the same groups of individuals, and under the same conditions, except that the products were applied to the skin of the face.
The texture of the skin and the flaccidness were assessed under blind conditions by the same clinician and are represented by clinical scores ranging from 0 (unpronounced or relatively unpronounced parameter) to 9 (very pronounced parameter).
(§2) The statistical analysis was performed by Wilcoxon tests.

skin of the face [3] = test: Elasticity of the skin by Dermal Torque Meter
Procedure: as §1
The elasticity of the skin was assessed, at the start of the test and after four months, using the apparatus available under the tradename Dermal Torque Meter® from DTM® Dia-Stron Limited, Andover, Hampshire, United Kingdom. This apparatus makes it possible to study the response of the skin to a deformation applied in the direction parallel to its surface, as described in Escoffier C et al., Age-Related Mechanical Properties of Human Skin: an in Vivo Study, J. Invest. Dermatol., 1989, 93:353-357.
as §2

[4] = after four months, 1% DHEA emulsion topical on face, score 0 to 9
[5] = four months vs placebo, Wilcoxon test
[6] = start of test, face, score 0 to 9

In the case of `C[C@]12CC[C@H](O)CC1=CC[C@@H]1[C@@H]2CC[C@]2(C)C(=O)CC[C@@H]12` [DHEA, dehydroepiandrosterone], the “score for the weathered appearance on the treated hand vs control hand” value ([1]; after four months, 1% DHEA emulsion topical morning and evening on back of one hand, score 0 to 9, significant at p=0.05) is reported as “lower”, the “difference in scores of the weathered appearance between the two hands” value ([1]; initial time (To), clinical score 0 to 9, women aged 55 to 70) is reported as “virtually nonexistent” and the “Flaccidness clinical score, T4” value (skin of the face [2]; [4]) is reported as 4.15. The “Texture clinical score, T4” value (skin of the face [2]; [4]) was 3.8, the “effect of topical application on flaccidness of the skin” value (skin of the face [2]; [5]) was “does not significantly modify” and the “effect of topical application on texture of the skin” value (skin of the face [2]; [5]) was “does not significantly modify”. The “Flaccidness clinical score, T0” value (skin of the face [2]; [6]) was 4.45, the “Texture clinical score, T0” value (skin of the face [2]; [6]) was 4 and the “Elasticity, T4” value (skin of the face [3]; after four months, 1% DHEA emulsion topical on face, Dermal Torque Meter) was 0.66. For the same molecule, the “effect of topical application on elasticity of the skin” value (skin of the face [3]; [5]) was “does not significantly modify” and the “Elasticity, T0” value (skin of the face [3]; start of test, face, Dermal Torque Meter) was 0.77.
